Results: ChEMBL document CHEMBL5725356, “Anti-fibrotic pyridinones” (2017)

Assay: ET-1 Assay: Fibroblasts (primary human lung and dermal, HFL-1, 3T3 etc) are seeded in 96-well plates at ~15000 cells/well and serum starved for 0-48 hours. After media exchange, compounds serially diluted in DMSO are added to the cells. After a brief incubation of ~30 min, stimulants (TGFb, serum, LPA etc) are added followed by further incubation for 16-48 hours. Media is then harvested and stored frozen in plate format for later endothelin-1 (ET-1) determination by ELISA. Toxicity measurements are made using the ATPlite kit (Perkin-Elmer). ET-1 is quantified using an ELISA kit (R&D Systems). The amount of ET-1 produced in the assay wells are back-calculated using the ELISA standard. The ability of a compound to inhibit ET-1 production is typically analyzed by fitting dose-response curves to a 4-parameter logistic function to obtain an EC50 value.
Conditions: HFL1

| Compound | EC50 |
| --- | --- |
| Cc1ccccc1-n1cc(-c2cnn(C)c2)ccc1=O | > 200 µM |
| O=c1c2c(c(-c3ccc(F)cc3)cn1-c1ccc(OC(F)(F)F)cc1)NCCC2 | > 200 µM |
| COc1ccc(-n2cc(-c3cccc(Cl)c3)ccc2=O)cc1 | < 50 µM |
| Cn1cc(-c2c[nH]c(=O)c3[nH]nnc23)cn1 | > 200 µM |
| Cn1cc(-c2cn(-c3ccc(OC(F)(F)F)cc3)c(=O)cc2Oc2ccccc2)cn1 | < 50 µM |
| Cc1cc(=O)n(-c2ccc(OC(F)(F)F)cc2)cc1-c1ccc2c(c1)OCC(=O)N2 | in the range around 125 µM |
| Cc1cc(=O)n(-c2ccc(OC(F)(F)F)cc2)cc1-c1ccc2c(c1)OCC(=O)N2C | < 50 µM |
| CCOc1ccc(-n2cc(Br)c3nccnc3c2=O)c(C)c1 | < 50 µM |
| CCOc1ccc(-n2cc(-c3cnn(C)c3)c(Oc3ccccc3)cc2=O)c(C)c1 | < 50 µM |
| Cc1cc(=O)n(-c2ccc3ocnc3c2)cc1-c1cnn(C)c1 | > 200 µM |
| CNC(=O)c1cccc(-n2cc(-c3ccc(F)cc3)c(C)cc2=O)c1 | in the range around 125 µM |
| Cn1cc(-c2cn(-c3ccc(OC(F)(F)F)cc3)c(=O)cc2NCc2ccccn2)cn1 | < 50 µM |
| CC(C)C(=O)Nc1cc(=O)n(-c2ccc(OC(F)(F)F)cc2)cc1-c1ccc(F)cc1 | > 200 µM |
| Cn1cc(-c2cn(-c3ccc(OC(F)(F)F)cc3)c(=O)c3nnn(CCF)c23)cn1 | < 50 µM |
| Cc1cc(=O)n(-c2ccc(OC(F)(F)F)cc2)cc1-c1cn(C)nc1C(F)(F)F | in the range around 125 µM |
| Cn1cc(-c2cn(-c3ccc(OC(F)(F)F)cc3)c(=O)cc2OCCN2CCOCC2=O)cn1 | in the range around 125 µM |
| Cn1cc(-c2cn(-c3ccc(OC(F)(F)F)cc3)c(=O)cc2Oc2cc(Cl)cc(C#N)c2)cn1 | > 200 µM |
| Cc1cc(=O)n(-c2ccc(OC(F)(F)F)cc2)cc1-n1ccnc1 | > 200 µM |
| CCn1nc2c(-c3cnn(C)c3)cn(-c3ccc(OC(F)(F)F)cc3)c(=O)c2n1 | < 50 µM |
| COc1cccc(-n2cc(C(F)(F)F)ccc2=O)c1 | > 200 µM |
| CC(C)OCCn1ccc2c(-c3cn[nH]c3)cn(-c3ccc(OC(F)(F)F)cc3)c(=O)c21 | < 50 µM |
| O=c1ccc(-c2ccccc2)cn1-c1cncnc1 | > 200 µM |
| COc1cc(=O)n(-c2ccc(OC(F)(F)F)cc2)cc1-c1cnn(C)c1 | < 50 µM |
| CN1CCN(CCOc2cc(=O)n(-c3ccc(OC(F)(F)F)cc3)cc2-c2ccc(F)cc2)CC1 | < 50 µM |
| O=c1c2scnc2c(-c2cn[nH]c2)cn1-c1ccc(OC(F)(F)F)cc1 | < 50 µM |

| Compound | EC50 |
| --- | --- |
| CCn1cnc2c(-c3cn[nH]c3)cn(-c3ccc(OC(F)(F)F)cc3)c(=O)c21 | < 50 µM |
| Cc1cc(=O)n(-c2ccccc2F)cc1-c1ccccc1 | in the range around 125 µM |
| CCn1c(=O)oc2c(-c3cn(-c4ccc(OC(F)(F)F)cc4)c(=O)cc3C)cccc21 | > 200 µM |
| Cn1cc(-c2cn(-c3ccc(OC(F)(F)F)cc3)c(=O)c3c2ccn3C2CC2)cn1 | < 50 µM |
| CC(=O)c1ccc(=O)n(-c2ccc(Cl)cc2)c1 | > 200 µM |
| O=c1c2nccnc2c(-c2cn[nH]c2)cn1-c1ccc(Cl)cc1 | > 200 µM |
| Cc1cc(=O)n(-c2ccc(OC(F)(F)F)cc2)cc1-c1ccccc1F | < 50 µM |
| Cc1ccc2c(c1)CC(=O)N2c1ccc(OC(F)(F)F)cc1 | > 200 µM |
| O=c1ccc(-c2cn[nH]c2)cn1-c1ccc(Cl)cc1 | > 200 µM |
| Cc1cc(=O)n(-c2cccc(NC(N)=O)c2)cc1-c1ccc(F)cc1 | < 50 µM |
| Cc1nc2c(=O)n(-c3ccc(OC(F)(F)F)cc3)cc(-c3ccc(F)cc3)c2o1 | > 200 µM |
| CCn1c(=O)oc2ccc(-c3c[nH]c(=O)cc3C)cc21 | < 50 µM |
| CCn1ccc2c(=O)n(-c3ccc(OC(F)(F)F)cc3)cc(-c3ccc(F)cc3)c21 | < 50 µM |
| O=c1cc(C(F)(F)F)c(-c2ccc(F)cc2)cn1-c1ccc(OC(F)(F)F)cc1 | in the range around 125 µM |
| COc1cc(-n2cc(-c3cnn(C)c3)c(C)cc2=O)cc(OC)c1OC | > 200 µM |
| Cc1cc(=O)n(-c2cccc(OC(F)(F)F)c2)cc1-c1ccc(F)cc1 | < 50 µM |
| COCCOCCOCCOc1cccc(-n2cc(C)ccc2=O)c1 | > 200 µM |
| Cc1cc(=O)n(-c2ccc(Cl)cc2)cc1-c1ccc2ocnc2c1 | > 200 µM |
| CCn1cnc2c(-c3cnn(C)c3)cn(-c3ccc(OC(F)(F)F)cc3)c(=O)c21 | < 50 µM |
| O=C1COc2c(-c3ccc(F)cc3)cn(-c3ccc(OC(F)(F)F)cc3)c(=O)c2N1Cc1ccccc1 | > 200 µM |
| O=c1c2ncn(Cc3ccccc3)c2c(-c2ccc(F)cc2)cn1-c1ccc(OC(F)(F)F)cc1 | > 200 µM |
| Cn1cc(-c2cn(-c3ccc(OC(F)(F)F)cc3)c(=O)cc2NCCc2ccccc2)cn1 | > 200 µM |
| COCCOc1ccc(-n2cc(-c3cnn(C)c3)c(Oc3ccccc3)cc2=O)cc1 | < 50 µM |
| Cn1cc(-c2cn(-c3ccc(OC(F)(F)F)cc3)c(=O)cc2NCc2ccc(F)cc2)cn1 | < 50 µM |
| O=c1cc(Oc2ccccc2)c(-c2ccc(F)cc2)cn1-c1ccc(OC(F)(F)F)cc1 | > 200 µM |

| Compound | EC50 |
| --- | --- |
| Cc1cc(-c2ccc(F)cc2)cn(-c2ccc(OC(F)(F)F)cc2)c1=O | in the range around 125 µM |
| O=c1ccc(-c2ccc(F)cc2)cn1-c1ccccc1Cl | > 200 µM |
| CCOc1ccc(-n2cc(-c3cnn(C)c3)c(OCCOC)cc2=O)c(C)c1 | < 50 µM |
| COc1ccc(-n2cc(-c3ccc(S(N)(=O)=O)cc3)ccc2=O)cc1 | > 200 µM |
| O=c1ccc(Br)cn1-c1ccc(F)cc1 | > 200 µM |
| CC(C)NC(=O)n1cc(-c2ccc(=O)n(-c3ccccc3)c2)cn1 | in the range around 125 µM |
| CCn1nc2c(-c3cnn(C)c3)cn(-c3ccc(OCCOC)cc3)c(=O)c2n1 | in the range around 125 µM |
| Cc1nc2c(-c3cn[nH]c3)cn(-c3ccc(OC(F)(F)F)cc3)c(=O)c2s1 | < 50 µM |
| Cc1cc(=O)n(-c2ccc(OC(F)(F)F)cc2)cc1C(F)(F)F | > 200 µM |
| Cc1ccc(=O)n(Cc2ccccc2)c1 | > 200 µM |
| Cn1cc(-c2cn(-c3ccc(Cl)cc3)c(=O)c3[nH]ccc23)cn1 | < 50 µM |
| N#Cc1ccc(-n2cc(-c3cn[nH]c3)c3nccnc3c2=O)cc1 | > 200 µM |
| CCOc1ccc(-n2cc(-c3cnn(C)c3)c3nn(CC)nc3c2=O)c(C)c1 | in the range around 125 µM |
| CC(C)c1cc(=O)n(-c2ccc(OC(F)(F)F)cc2)cc1-c1ccc(F)cc1 | in the range around 125 µM |
| Cn1cc(-c2cn(-c3ccc(OC(F)(F)F)cc3)c(=O)cc2C#N)cn1 | < 50 µM |
| Cc1cc(=O)n(-c2cccc(NC(N)=O)c2)cc1-c1cnn(C)c1 | < 50 µM |
| COc1ccc(CNc2cc(=O)n(-c3ccc(OC(F)(F)F)cc3)cc2-c2cnn(C)c2)cc1 | < 50 µM |
| O=c1cc(OCc2ccccc2)c(-c2ccc(F)cc2)cn1-c1ccc(OC(F)(F)F)cc1 | > 200 µM |
| CCOc1ccc(Oc2cc(=O)n(-c3ccc(OC(F)(F)F)cc3)cc2-c2cnn(C)c2)cc1C | > 200 µM |
| Cc1ccc(=S)n(-c2ccc(OC(C)C)cc2)c1 | > 200 µM |
| Cn1cc(-c2cn(-c3ccc(OC(F)(F)F)cc3)c(=O)c3nccnc23)cn1 | < 50 µM |
| O=c1ccc(-c2cnn(Cc3ccccc3)c2)cn1-c1ccccc1 | in the range around 125 µM |
| Cc1cc(=O)n(-c2ccc(OC(F)(F)F)cc2)cc1-c1ccnnc1 | in the range around 125 µM |
| Cc1cc(=O)n(-c2ccc(OC(F)(F)F)cc2)cc1-c1ccncc1 | > 200 µM |
| Cc1cc(=O)n(-c2ccc(OC(F)(F)F)cc2)cc1-c1nn[nH]n1 | > 200 µM |

| Compound | EC50 |
| --- | --- |
| Cn1cc(-c2cn(-c3ccc(OC(F)(F)F)cc3)c(=O)cc2NCc2c(Cl)cccc2Cl)cn1 | > 200 µM |
| Cn1cc(-c2cn(-c3ccc(OC(F)(F)F)cc3)c(=O)cc2OCCN2CCCC2=O)cn1 | > 200 µM |
| O=c1ccc(Br)cn1-c1cccc(F)c1 | > 200 µM |
| O=c1ccc(-c2cn[nH]c2)cn1-c1ccc(F)cc1 | in the range around 125 µM |
| O=c1c2[nH]nnc2c(-c2ccc(F)cc2)cn1-c1ccc(OC(F)(F)F)cc1 | in the range around 125 µM |
| CCOC(=O)n1cc(-c2ccc(=O)n(-c3ccccc3)c2)cn1 | < 50 µM |
| COc1cccc(-n2cc(-c3cccc(Cl)c3)ccc2=O)c1 | < 50 µM |
| O=c1ccc2c(n1-c1ccc(OC(F)(F)F)cc1)CCC2 | in the range around 125 µM |
| CCOc1ccc(-n2cc(-c3cn[nH]c3)c3nccnc3c2=O)c(C)c1 | < 50 µM |
| Cc1nc2c(=O)n(-c3ccc(OC(F)(F)F)cc3)cc(-c3cnn(C)c3)c2o1 | < 50 µM |
| COCCOc1ccc(-n2cc(-c3ccccc3)c(C)cc2=O)cc1 | < 50 µM |
| N#Cc1cc(=O)n(-c2ccc(OC(F)(F)F)cc2)cc1-c1ccc(F)cc1 | > 200 µM |
| CCCCC(=O)Nc1cc(=O)n(-c2ccc(OC(F)(F)F)cc2)cc1-c1ccc(F)cc1 | > 200 µM |
| O=c1c2c(ccn2Cc2ccccc2)c(-c2ccc(F)cc2)cn1-c1ccc(OC(F)(F)F)cc1 | > 200 µM |
| CCOc1ccc(-n2cc(-c3ccnnc3)c(C)cc2=O)c(C)c1 | < 50 µM |
| Cc1cc(=O)n(-c2ccc(OC(F)(F)F)cc2)cc1-c1ccccc1 | < 50 µM |
| Cc1cc(=O)n(-c2ccc(OC(F)(F)F)cc2)cc1-c1cccc2c1OC(C)(C)O2 | in the range around 125 µM |
| Cn1ccc2c(-c3cn[nH]c3)cn(-c3ccc(OC(F)(F)F)cc3)c(=O)c21 | < 50 µM |
| Cn1cc(-c2cn(-c3ccc(OC(F)(F)F)cc3)c(=O)c3[nH]ccc23)cn1 | < 50 µM |
| O=c1ccc(-c2cccc(Cl)c2)cn1-c1ccc(Cl)cc1 | < 50 µM |
| Cn1cc(-c2cn(-c3ccc(OC(F)(F)F)cc3)c(=O)cc2N2CCCCC2)cn1 | > 200 µM |
| Cc1cc(=O)n(-c2ccc(OC(F)(F)F)cc2)cc1-c1c(C)nn(C)c1C | in the range around 125 µM |
| Cc1cc(=O)n(-c2cccc3c2OCCO3)cc1-c1ccc(F)cc1 | in the range around 125 µM |
| CCOc1ccc(-n2cc(-c3cn[nH]c3)ccc2=O)c(C)c1 | < 50 µM |
| Cn1cc(-c2cn(-c3ccc(OC(F)(F)F)cc3)c(=O)cc2NCc2cncnc2)cn1 | < 50 µM |
